Measurements from the Deep4Chem optical property database.
Blank lines part the entries; values can stand above or below the molecule they belong to.

Experiment: solvent given as SMILES
[1] = in O=P(c1ccccc1)(c1ccccc1)c1ccccc1Oc1ccccc1P(=O)(c1ccccc1)c1ccccc1

SMILES: CC1(C)CC(/C=C/c2ccc(-n3ccnc3)cc2)=CC(=C(C#N)C#N)C1
fluorescence lifetime (in CCO): 0.03 ns

SMILES: CCC1=C(C)C2=C(c3cc(C(=O)Cl)cc(C4=C5C(C)=C(CC)C(C)=[N+]5[B-](F)(F)n5c(C)c(CC)c(C)c54)c3)c3c(C)c(CC)c(C)n3[B-](F)(F)[N+]2=C1C
fluorescence lifetime (in CN(C)C=O): 4.1 ns

SMILES: CC(C)(C)c1ccc2c(c1)c1cc(C(C)(C)C)ccc1n2-c1cc[n+]2c(c1)-c1ccccc1O[B-]2(F)F
fluorescence lifetime [1]: 6.3 ns

SMILES: CC1(C)c2ccccc2N(c2ccc(-c3nc([C@]45CC6CC(C[C@@H](C6)C4)C5)nc([C@]45C[C@H]6C[C@@H](C[C@H](C6)C4)C5)n3)cc2)c2ccccc21
fluorescence lifetime (in CC(C)(C)c1ccc(-n2c3ccc([Si](c4ccccc4)(c4ccccc4)c4ccccc4)cc3c3cc([Si](c4ccccc4)(c4ccccc4)c4ccccc4)ccc32)cc1): 14.4 ns

SMILES: Cc1cc(=O)oc2cc(/[NH+]=C/C=C3/C=C(C(=O)O)NC(C(=O)O)C3)ccc12 (configuration not stated)
fluorescence lifetime (in O): 0.038 ns

SMILES: CC(C)c1cc(C(C)C)c(B2c3ccccc3Oc3cc(-n4c5ccccc5c5c6c(c7ccccc7n6-c6ccccc6)c6c(c7ccccc7n6-c6ccccc6)c54)ccc32)c(C(C)C)c1
fluorescence lifetime (in CC(C)c1cc(C(C)C)c(-c2ccc(-n3c4ccccc4n4c5ccccc5nc34)nc2)c(C(C)C)c1): 23.1 ns
fluorescence lifetime [1]: 24.7 ns

SMILES: C(#Cc1ccc(-n2c3ccccc3c3ccccc32)cc1)c1ccccc1
fluorescence lifetime (in CC#N): 4.36 ns
fluorescence lifetime (in CCCCC): 2.6 ns
fluorescence lifetime (in CO): 3.7 ns
fluorescence lifetime (in Cc1ccccc1): 1.45 ns
fluorescence lifetime (in ClC(Cl)Cl): 1.59 ns
fluorescence lifetime (in ClCCl): 2.53 ns

SMILES: CCCCN1C(=O)c2cc(Br)c3c4c(Br)c(Br)c5c6c(cc(Br)c(c7c(Br)c(Br)c(c2c37)C1=O)c64)C(=O)N(CCCC)C5=O
fluorescence lifetime (in ClC(Cl)Cl): 1.1 ns

SMILES: Cc1ccc2c(c1)C(=O)c1ccncc1-2
fluorescence lifetime (in CC#N): 5.3 ns
fluorescence lifetime (in CCOC(C)=O): 7.4 ns
fluorescence lifetime (in Cc1ccccc1): 6.6 ns
fluorescence lifetime (in ClCCl): 5.9 ns

SMILES: [NH3+]c1cc([NH3+])cc(-c2[nH+]c3ccccc3s2)c1
fluorescence lifetime (in O): 0.52 ns

SMILES: c1ccc(-c2nc(-c3ccccc3)nc(-c3cc(-n4c5ccccc5c5ccccc54)c(-n4c5ccccc5c5ncccc54)c(-n4c5ccccc5c5ccccc54)c3)n2)cc1
fluorescence lifetime (in O=P(c1ccccc1)(c1ccccc1)c1ccc2oc3ccc(P(=O)(c4ccccc4)c4ccccc4)cc3c2c1): 20.4 ns

SMILES: COc1ccc(O)c(-c2nc(C)c3n2CCCC3)c1
fluorescence lifetime (in ClCCl): 1.12 ns

SMILES: Nc1ccc2c(-c3ccc(C(=O)CN4C(=O)CCC4=O)cc3C(=O)[O-])c3ccc(=[NH2+])c(S(=O)(=O)[O-])c-3oc2c1S(=O)(=O)[O-]
fluorescence lifetime (in O): 4.1 ns

SMILES: CCCCc1cc2cccc3cc(CCCC)c4cc(-c5cc6[b-]7c(c5)c(CCCC)cc5cccc(cc6CCCC)[n+]75)cc1[b-]4[n+]23
fluorescence lifetime (in C1CCCCC1): 20.5 ns

SMILES: c1ccc(-c2cc(-c3ccc(-c4nc(-c5ccccn5)c(-c5ccccn5)[nH]4)cc3)cc(-c3ccccn3)n2)nc1
fluorescence lifetime (in C1CCOC1): 1.46 ns
fluorescence lifetime (in CC#N): 1.44 ns
fluorescence lifetime (in CC(C)=O): 1.09 ns
fluorescence lifetime (in CCCCCC): 0.065 ns
fluorescence lifetime (in CCO): 2.04 ns
fluorescence lifetime (in CCOC(C)=O): 1.18 ns
fluorescence lifetime (in CN(C)C=O): 1.91 ns
fluorescence lifetime (in CO): 1.41 ns
fluorescence lifetime (in CS(C)=O): 2.04 ns
fluorescence lifetime (in ClC(Cl)Cl): 1.19 ns
fluorescence lifetime (in ClCCl): 3.43 ns
fluorescence lifetime (in O): 2.39 ns

SMILES: CCN(CC)c1ccc2c(c1)OC1=CC(N(CC)CC)C=CC1[C+]2c1ccccc1C(=O)O (configuration not stated)
fluorescence lifetime (in CC(C)O): 2.69 ns
fluorescence lifetime (in CCCCCCCCO): 3.18 ns
fluorescence lifetime (in CCCCCCO): 3.09 ns
fluorescence lifetime (in CCCCO): 2.98 ns
fluorescence lifetime (in CCCO): 2.79 ns
fluorescence lifetime (in CCO): 2.45 ns
fluorescence lifetime (in CO): 2.15 ns
fluorescence lifetime (in O): 1.52 ns
fluorescence lifetime (in [2H]O[2H]): 1.64 ns

SMILES: O=c1oc2ccccc2cc1-c1nc2ccccc2o1
fluorescence lifetime (in CO): 3.47 ns
fluorescence lifetime (in ClC(Cl)(Cl)Cl): 3.17 ns
fluorescence lifetime (in OCCO): 3.78 ns

SMILES: c1ccc([B-]2(c3ccccc3)Oc3ccc4ccccc4c3-c3c4ccccc4cc[n+]32)cc1
fluorescence lifetime (in Cc1ccccc1): 9.47 ns

SMILES: Nc1ccc2c(c1)Cc1ccccc1-2
fluorescence lifetime (in C1CCCCC1): 5.3 ns
fluorescence lifetime (in CC#N): 3.2 ns
fluorescence lifetime (in CO): 4.5 ns
fluorescence lifetime (in O): 2.1 ns

SMILES: Cc1ccc(C2=C3C=CC(/C=C/c4ccccc4)=[N+]3[B-](F)(F)n3c(/C=C/c4ccccc4)ccc32)cc1
fluorescence lifetime (in C1CCCCC1): 4.37 ns
fluorescence lifetime (in C1CCOC1): 4.09 ns
fluorescence lifetime (in C1COCCO1): 4.31 ns
fluorescence lifetime (in CCOC(C)=O): 4.77 ns
fluorescence lifetime (in CO): 4.54 ns
fluorescence lifetime (in Cc1ccccc1): 4.48 ns
fluorescence lifetime (in ClC(Cl)Cl): 4.63 ns

SMILES: Cc1ccc2nc3c(=O)n(C)c(=O)nc-3n(C)c2c1
fluorescence lifetime (in CC#N): 4.9 ns

SMILES: c1ccc(-c2nc(-c3ccccc3)nc(-c3ccc(-n4c5ccccc5c5cc6c(cc54)C4(c5ccccc5-c5ccccc54)c4ccccc4-6)cc3)n2)cc1
fluorescence lifetime [1]: 3.9 ns

SMILES: CC1=C(c2cccs2)C(C)=[N+]2C1=C(c1ccc(OS(=O)(=O)c3ccc([N+](=O)[O-])cc3[N+](=O)[O-])cc1)c1c(C)c(-c3cccs3)c(C)n1[B-]2(F)F
fluorescence lifetime (in Cc1ccccc1): 3.6 ns

SMILES: Cc1ccc(/C2=C3N=C(C(c4ccccc4)=C/3c3ccccc3)/C(c3ccc(C)cc3)=c3\[nH]/c(c(-c4ccccc4)c3-c3ccccc3)=C(/c3ccc(C)cc3)C3=N/C(=C(/c4ccc(C)cc4)c4[nH]c2c(-c2ccccc2)c4-c2ccccc2)C(c2ccccc2)=C3c2ccccc2)cc1
fluorescence lifetime (in ClCCl): 0.472 ns

SMILES: CCC1=C(C)C2=C(C)c3cccn3[B-](F)(F)[N+]2=C1C
fluorescence lifetime (in C1CCCCC1): 5.46 ns
fluorescence lifetime (in CC(C)=O): 5.66 ns
fluorescence lifetime (in CCO): 5.73 ns
fluorescence lifetime (in CCOC(C)=O): 5.57 ns
fluorescence lifetime (in CO): 5.78 ns
fluorescence lifetime (in OCC(F)(F)F): 6.17 ns

SMILES: CC1(C)C(/C=C/C2=C(Oc3ccc(CCN=C=S)cc3I)C(=C/C=C3/N(CCCS(=O)(=O)[O-])c4ccccc4C3(C)C)/CCC2)=[N+](CCCS(=O)(=O)[O-])c2ccccc21
fluorescence lifetime (in CO): 0.947 ns

SMILES: COC(C)CC1=N/C(=C\c2cccc(N(C)C)c2)C(=O)N1C (configuration not stated)
fluorescence lifetime (in C1CCOC1): 15.3 ns
fluorescence lifetime (in CC#N): 7.7 ns
fluorescence lifetime (in CCCCCC): 22.4 ns

SMILES: COC(=O)c1nc(Cl)c(-c2ccccc2)o1
fluorescence lifetime (in C1CCCCC1): 0.67 ns

Now from value to molecule:

fluorescence lifetime (in ClCCl): 1.4 ns
SMILES: COc1ccc(-c2ccc3c(c2)[Si](C)(C)c2cc(-c4ccc(OC)cc4)ccc2C=C3)cc1

fluorescence lifetime (in ClC(Cl)Cl): 0.535 ns
SMILES: CCCCCCN1C(=O)c2cccc3c(-c4ccc(-c5ccc(-c6ccc7c8c(cccc68)C(=O)N(CCCCCC)C7=O)s5)s4)ccc(c23)C1=O

fluorescence lifetime (in CC#N): 0.63 ns
fluorescence lifetime (in CO): 0.81 ns
SMILES: CN1c2ccccc2CCc2ccccc21

fluorescence lifetime (in C1CCOC1): 2.4 ns
fluorescence lifetime (in C1COCCO1): 2.41 ns
fluorescence lifetime (in CC#N): 2.32 ns
fluorescence lifetime (in CC(C)O): 2.11 ns
fluorescence lifetime (in CCO): 2.04 ns
fluorescence lifetime (in CCOC(C)=O): 2.41 ns
fluorescence lifetime (in CN(C)C=O): 2.59 ns
fluorescence lifetime (in CO): 1.66 ns
fluorescence lifetime (in CS(C)=O): 2.56 ns
fluorescence lifetime (in O): 3.35 ns
SMILES: Cc1ccc(C2CC(c3ccc(O)cc3)=NN2c2ccc(S(N)(=O)=O)cc2)cc1 (configuration not stated)

fluorescence lifetime (in ClCCl): 1.2 ns
SMILES: c1ccc(N(c2ccccc2)c2ccc(-c3ccc4c(c3)C3(c5ccccc5Oc5ccccc53)c3cc(-c5ccc(N(c6ccccc6)c6ccccc6)cc5)ccc3-4)cc2)cc1

fluorescence lifetime (in ClCCl): 6.4 ns
SMILES: CC(C)(C)c1ccc(-c2nc3c4ccccc4c4ccccc4c3n2-c2ccc(C(C)(C)C)cc2)cc1

fluorescence lifetime (in ClCCl): 1.64 ns
SMILES: CCCCn1c(-c2ccc(-c3nnc(-c4ccc(-c5nc6c7ccccc7c7ccccc7c6n5CCCC)cc4)o3)cc2)nc2c3ccccc3c3ccccc3c21

fluorescence lifetime (in ClC(Cl)Cl): 4.4 ns
SMILES: COc1ccc(-c2oc3cccc4c5c(-c6ccc(OC)c(OC)c6)/c(=N/S(=O)(=O)C(F)(F)F)oc6cccc(c2c34)c65)cc1OC

fluorescence lifetime (in ClCCl): 2.44 ns
SMILES: COC(=O)c1[nH]c(-c2ccc([N+](=O)[O-])cc2)c2nnc3ccc(OC)cc3c12

fluorescence lifetime (in C1CCCCC1): 0.4 ns
fluorescence lifetime (in CC#N): 17.8 ns
fluorescence lifetime (in CCO): 1.9 ns
fluorescence lifetime (in c1ccccc1): 2.8 ns
SMILES: O=C1c2ccccc2-c2ccccc21

fluorescence lifetime (in ClC(Cl)Cl): 2.48 ns
SMILES: C[N+]1=c2ccc3c(c2C(C)(C)CC1)Oc1cc2c(cc1C=3c1ccccc1C(=O)O)C(c1ccccc1C(=O)O)=c1ccc3c(c1O2)C(C)(C)CC[N+]=3C

fluorescence lifetime (in CS(C)=O): 8.85 ns
SMILES: Cn1c2ccccc2c(=O)c2ccccc21

fluorescence lifetime (in c1cc(-c2cccc(-n3c4ccccc4c4ccccc43)c2)cc(-n2c3ccccc3c3ccccc32)c1): 5.5 ns
fluorescence lifetime (in c1cc(-n2c3ccccc3c3ccccc32)cc(-n2c3ccccc3c3ccccc32)c1): 5.5 ns
SMILES: O=c1c2ccccc2n2c3ccc(-c4ccccc4)cc3c(=O)c3cccc1c32

fluorescence lifetime (in ClCCl): 0.99 ns
SMILES: Cn1c(=O)cc(C(=O)c2ccccc2)c2sc(-c3ccc(N(c4ccccc4)c4ccccc4)cc3)cc21

fluorescence lifetime (in CN(C)C=O): 2.9 ns
SMILES: Nc1ccc(N2C(=O)c3ccc4c5ccc6c7c(ccc(c8ccc(c3c48)C2=O)c75)C(=O)NC6=O)cc1

fluorescence lifetime (in C1CCCCC1): 23 ns
fluorescence lifetime (in C1CCOC1): 23 ns
fluorescence lifetime (in CC#N): 10.1 ns
SMILES: Cn1nc(-c2ccccc2)c2nc3cc(F)ccc3nc21

fluorescence lifetime (in O): 12.8 ns
SMILES: O=C([O-])c1cc2c(ccc3ccccc32)oc1=O

fluorescence lifetime (in ClCCl): 2.2 ns
SMILES: COc1ccc(-c2c3cc4ccccc4cc3c(C#Cc3ccccc3)c3cc4ccccc4cc23)cc1

fluorescence lifetime (in ClCCl): 4.3 ns
SMILES: N#Cc1ccc(-n2c(-c3ccc(-c4ccc(-n5c6ccccc6c6ccccc65)cc4)s3)nc3c4ccccc4c4ccccc4c32)c2ccccc12

fluorescence lifetime (in ClCCl): 4.4 ns
SMILES: COc1ccc(-c2c3ccccc3c(-c3ccc(OC)cc3)c3ccccc23)cc1

fluorescence lifetime (in C1CCOC1): 1.61 ns
SMILES: CC(C)(C)c1ccc(C2=C(c3ccc(N4c5ccccc5C(C)(C)c5ccccc54)cc3)S(=O)(=O)c3c2sc(-c2ccc(N4c5ccccc5C(C)(C)c5ccccc54)cc2)c3-c2ccc(C(C)(C)C)cc2)cc1

fluorescence lifetime (in C1CCCCC1): 3.9 ns
fluorescence lifetime (in CC#N): 4.3 ns
fluorescence lifetime (in ClCCl): 4.7 ns
SMILES: c1ccc2c(-c3ccc4sc5ccc(-c6c7ccccc7cc7ccccc67)cc5c4c3)c3ccccc3cc2c1

fluorescence lifetime (in C1CCCCC1): 21.8 ns
fluorescence lifetime (in CC#N): 26.7 ns
fluorescence lifetime (in CO): 25.2 ns
fluorescence lifetime (in ClCCl): 22 ns
SMILES: COc1c2ccccc2c(OC)c2c1c1cccc(OC)c1n2C

fluorescence lifetime (in ClCCl): 2.67 ns
SMILES: O=[N+]([O-])c1cccc2c1ccc1[n+]2[B-](F)(F)n2c-1cc1c3ccccc3c3ccccc3c12

fluorescence lifetime (in ClCCl): 11.3 ns
SMILES: O=P1(c2ccccc2)c2ccccc2-c2sc3ccccc3c21 (configuration not stated)

fluorescence lifetime (in ClCCl): 11.8 ns
SMILES: COc1ccc(C#Cc2c3cc4ccccc4cc3c(C#Cc3ccc(OC)cc3)c3cc4sc(C)cc4cc23)cc1

fluorescence lifetime (in ClCCl): 7.3 ns
SMILES: CC1=C2c3ccccc3C(c3[nH]c(C)cc3C)=[N+]2[B-](F)(F)n2c(C)cc(C)c21
